In US20220168384A1, “Anti-Bacterial Combination Therapy” (McMaster University, priority 2019, published 2022):
“And” between values parts separate entries of the source, which are not always exact repeats. Equal values may be shown once.

Columns and labels:
P. aeruginosa PAO1 [1] = assay: TS dose response assay (biofilm and planktonic growth); format: cell-based, Pseudomonas aeruginosa
Description: Briefly, P. aeruginosa was inoculated in 5 mL of LB and grown at 37° C. overnight, shaking at 200 rpm, and subsequently standardized to an OD600 of ˜ 0.1 in 10:90. For the initial screen, 1 mM compound stocks in DMSO were diluted 1:100 in standardized cell suspension (1.5 μL of compound stock in 148.5 μL of cell suspension) to a final concentration of 10 μM. Control wells contained 10:90 plus 1% DMSO (sterility control) or standardized cell suspension plus 1% DMSO (growth control). Biofilms were formed on polystyrene peg lids (Nunc). After placement of the peg lid, the plate was sealed with parafilm to prevent evaporation and incubated for 16 h at 37° C., 200 rpm. Following incubation, the 96-peg lid was removed and planktonic density in the 96 well plate measured at OD600 to assess the effect of test compounds on bacterial growth. The lid was transferred to a new microtiter plate containing 200 μl of 1× phosphate-buffered saline (PBS) per well for 10 min to wash off any loosely adherent bacterial cells, then to a microtiter plate containing 200 μL of 0.1% (wt/vol) crystal violet (CV) per well for 15 min. Following staining, the lid was washed with 70 mL of dH2O, in a single well tray, for 10 min. This step was repeated four times to ensure complete removal of excess CV. The lid was transferred to a 96-well plate containing 200 μL of 33% (vol/vol) acetic acid per well for 5 min to elute the bound CV. The absorbance of the eluted CV was measured at 600 nm (BioTek ELx800), and the results plotted as percent of the DMSO control using Prism (Graphpad). Screens were performed in duplicate. […]. Compounds of interest were further evaluated using the same assay but over a wider range of concentrations (dose-response assay). […].
For TS dose response assays, TS stock solutions were diluted in DMSO and 2 μL of the resulting solutions plus 148 μL of a bacterial suspension standardized to an OD600 of ˜0.1 in 10:90 were added to a 96 well plate in triplicate, as described above. Control wells contained 148 μL of 10:90+1.3% DMSO (sterility control) or standardized bacterial suspension+1.3% DMSO (growth control). For ethylenediamine-N,N′-bis(2-hydroxyphenylacetic acid) (EDDHA) alone or with FeCl3 experiments, 2 μL of each were added as aqueous solutions to reach final concentrations of 0.1 μM EDDHA and 100 μM FeCl3, and the amount of bacterial suspension adjusted to keep the total well volume at 150 μL. Controls for EDDHA and FeCl3 were 2 μL of sterile dH2O. Biofilms were grown for 16 h at 37° C., 200 rpm, then stained and quantified as described above. Assays were performed in triplicate and results were graphed using Prism (Graphpad) as a percentage of the DMSO control.
Deletion mutants lacking the outer membrane components of the 4 major resistance-nodulation-division (RND) efflux systems of P. aeruginosa (MexAB-OprM, MexXY-OprM, MexCD-OprJ, and MexEF-OpmD) were generated. Briefly, the pairs of primers listed in Table 3 were used to amplify regions up- and downstream of the gene to be deleted. The PCR products were digested with the restriction enzymes indicated in the primer sequences and the resulting fragments ligated into the suicide vector pEX18Gm. After DNA sequencing validation of the constructs, they were introduced into E. coli SM10 for biparental mating into P. aeruginosa PAO1. Mating mixtures were plated on Pseudomonas isolation agar containing 200 μg/ml gentamicin (Gm) to counterselect the donor. Gm-sensitive double recombinants were selected on LB agar, with no salt and with 5% (wt/vol) sucrose. Gm-sensitive deletion mutants were identified by PCR and validated by DNA sequencing of the deletion junction.

P. aeruginosa PAO1 [2] = assay: Checkerboard assays of TS with DFP, DSX or 10% serum; format: cell-based, Pseudomonas aeruginosa; details: 10:90 + 10% heat-inactivated mouse or human serum, regardless of DSX
Description: Human serum (Corning) and mouse serum (Equitech-Bio) were stored at −20° C. Sera were aliquoted into 5-ml culture tubes by thawing once at 37° C. for 30 min with occasional gentle mixing. Culture tubes were frozen at −20° C. until use. To make 10% serum solutions, serum was thawed for 10 min at 37° C. and then heat inactivated at 57° C. for 30 min. Two milliliters of heat-inactivated serum were added to 18 ml of 10:90 medium and gently mixed. This 10% serum solution was used for checkerboard assays.
Checkerboard assays were set-up using Nunc 96-well plates in an 8-well by 8-well format. Two columns were allocated for vehicle controls and two columns for sterility controls. Vehicle controls contained 2 μL DMSO plus 2 μL DFP solvent for checkerboards with TS and DFP or 4 μL DMSO for TS and DSX, in 146 μL of 10:90 medium or 10% serum inoculated with PA14 or PAO1-KP as described in Growth Curves. Sterile controls contained the same components in 10:90 medium or 10% serum, without cells. Serial dilutions of TS—with 17 μg/mL being the highest final concentration—were added along the y axis of the checkerboard (increasing concentration from bottom to top) whereas serial dilutions of DFP or DSX—with 512 μg/mL being the highest final concentration—were added along the x axis (increasing concentration from left to right). The final volume of each well was 150 μL and each checkerboard was repeated at least three times. Plates were incubated and the final OD600 determined as detailed above.

E. coli BW25113 = assay: Thiostrepton susceptibility of E. coli in MHB versus 10:90; format: cell-based, Escherichia coli; details: 10:90 medium; up to 10 μM (17 μg/ml) TS
Description: The susceptibility of P. aeruginosa PA14, E. coli BW25113, A. baumannii C0286, and S. aureus USA300 was compared in MHB versus 10:90 medium. E. coli lacks FpvAB and is resistant to TS in both media.

P. aeruginosa PA14 = assay: Checkerboards pinned to LB agar (bactericidal activity); format: cell-based, Pseudomonas aeruginosa; details: overnight 37° C.
Description: Checkerboards were pinned to LB agar plates using a sterile 96 pin tool. Plates were incubated overnight at 37° C. Independent experiments were conducted 3 times and a representative plate is shown.

[3] = PAO1, 10:90 medium, dose-dependent, up to 10 μM TS

C=C(NC(=O)C(=C)NC(=O)c1csc(C2=N[C@@H]3c4csc(n4)[C@H]4NC(=O)c5csc(n5)[C@H]([C@](C)(O)[C@@H](C)O)NC(=O)[C@H]5CSC(=N5)/C(=C/C)NC(=O)[C@H]([C@@H](C)O)NC(=O)c5csc(n5)[C@]3(CC2)NC(=O)[C@H](C)NC(=O)C(=C)NC(=O)[C@H](C)NC(=O)[C@H]([C@@H](C)CC)N[C@@H]2C=Cc3c([C@H](C)O)cc(nc3[C@H]2O)C(=O)O[C@@H]4C)n1)C(N)=O [TS, thiostrepton]
planktonic cell density and biofilm stimulation with EDDHA and FeCl3 (P. aeruginosa PAO1 [1]; PAO1, 10:90 + 0.1 μM EDDHA + 100 μM FeCl3): increased planktonic cell density and reduced biofilm stimulation | biofilm stimulation and growth inhibition with EDDHA (P. aeruginosa PAO1 [1]; PAO1, 10:90 + 0.1 μM EDDHA versus 10:90 alone): shifted biofilm stimulation and growth inhibition to lower concentrations of TS | biofilm formation (P. aeruginosa PAO1 [1]; [3]): stimulated biofilm formation | planktonic cell density (P. aeruginosa PAO1 [1]; [3]): decreased planktonic cell density | TS concentrations at which planktonic cell density decreased to below the level of detection (P. aeruginosa PAO1 [1]; PAO1, VBMM): > 0.63 µM | TS susceptibility on supplementation with casamino acids (P. aeruginosa PAO1 [1]; PAO1, VBMM + 0.1% casamino acids): no change in TS susceptibility | TS susceptibility on supplementation with MgCl2 (P. aeruginosa PAO1 [1]; PAO1, VBMM + 100 mM MgCl2): no effect on susceptibility | TS susceptibility of mutants lacking the major efflux pumps (P. aeruginosa PAO1 [1]; PAO1 efflux deletion mutants): near-wild-type susceptibility | TS susceptibility on deletion of peptide transport systems (P. aeruginosa PAO1 [1]; simultaneous deletion of components of Opp (Npp) and Spp): no effect on TS susceptibility | concentration of TS required to inhibit growth in serum (P. aeruginosa PAO1 [2]): markedly decreased | growth (E. coli BW25113): unaffected | mode of activity of compound alone (P. aeruginosa PA14): bacteriostatic | solubility (physchem): 10 µM and 17 µg/mL
